Test results as given in PubChem BioAssay (NCI).
Where “and” joins values, the source holds several entries; their conditions need not be identical. Equal entries are not always repeated.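 Grown in 96-well plates, cells were treated for 48 hours with each compound at five concentrations. Insufficient inhibition: endpoint recorded as highest concentration tested. The concentration for 50% growth inhibition is given as GI50. At the TGI there is no net growth.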

Columns and labels:
Assay in all cases: DTP human tumour cell line panel, 48 h
A549 NSCLC = test system: A549 NSCLC
ACHN renal = test system: ACHN renal
CCRF-CEM leukemia = test system: CCRF-CEM leukemia
HCC-2998 colon = test system: HCC-2998 colon
HCT-116 colon = test system: HCT-116 colon
MOLT-4 leukemia = test system: MOLT-4 leukemia
OVCAR-3 ovarian = test system: OVCAR-3 ovarian
OVCAR-5 ovarian = test system: OVCAR-5 ovarian
OVCAR-8 ovarian = test system: OVCAR-8 ovarian
SF-295 CNS = test system: SF-295 CNS
SF-539 CNS = test system: SF-539 CNS
U251 CNS = test system: U251 CNS
PC-3 prostate = test system: PC-3 prostate
T-47D breast = test system: T-47D breast
BT-549 breast = test system: BT-549 breast

Row | SMILES | TGI (A549 NSCLC) [µM] | TGI (ACHN renal) [µM] | TGI (CCRF-CEM leukemia) | TGI (HCC-2998 colon) [µM] | TGI (HCT-116 colon) [µM] | TGI (MOLT-4 leukemia) [µM] | TGI (OVCAR-3 ovarian) [µM] | TGI (OVCAR-5 ovarian) [µM] | TGI (OVCAR-8 ovarian) [µM] | TGI (SF-295 CNS) [µM] | TGI (SF-539 CNS) [µM] | TGI (U251 CNS) [µM] | TGI (PC-3 prostate) [µM] | TGI (T-47D breast) [µM] | TGI (BT-549 breast) [µM] | GI50 (CCRF-CEM leukemia) [µM] | GI50 (HCT-116 colon) [µM] | GI50 (MOLT-4 leukemia) [µM] | GI50 (OVCAR-3 ovarian) [µM]
1 | Cc1ccc2[nH]c3c(C)c4ccncc4c(C)c3c2c1 | 2.63 | 2.28 | 3.74 µM | 2.87 | 1.61 | 1.95 | 3.27 | 2.81 | 2.25 | 2.32 | 2.68 | 2.46 |  |  |  |  |  |  | 
2 | CNC(=O)CN1CC(=O)N(C)C(=O)C1 |  |  | > 100 µM | > 100 |  | > 100 | > 100 | > 100 |  |  |  | > 100 |  |  |  |  |  |  | 
3 | O=C(/C=C/c1ccc(Cl)c(Cl)c1)Oc1ccc(/C=C2\CCCCC2=O)cc1 | > 100 | > 100 | > 100 µM | > 100 | > 100 | 72.1 | > 100 | > 100 | > 100 | > 100 | > 100 | > 100 | > 100 | > 100 |  |  |  |  | 
4 | N#Cc1c(-c2ccc(Cl)cc2)c(C#N)c(=O)n(NS(=O)(=O)c2ccccc2)c1-c1ccccc1 | > 25 | > 25 | > 25 µM | > 25 | > 25 | > 25 |  | > 25 |  | > 25 | > 25 | > 25 | > 25 |  | > 25 |  |  |  | 
5 | CCCCCCCCCN1CCC(=O)C(C(=O)OC)C1 (configuration not stated) | 30.7 | 21 | 31.2 µM | 33.8 | 26.9 | 54.6 | 29.4 | 29 | 21 | 31.9 | 36.5 |  |  | 28.3 |  |  |  |  | 
6 | CSCCC(NC(c1ccccc1)c1ccccc1)[P+](=O)O (configuration not stated) | > 100 | > 100 | > 100 µM |  | > 100 | > 100 | > 100 | > 100 | > 100 | > 100 |  | > 100 | > 100 | > 100 | > 100 |  |  |  | 
7 | Nc1ccn(C2OC(COP(=O)(O)Oc3ccccc3)C(O)C2O)c(=O)n1 (configuration not stated) | > 100 |  | > 100 µM | > 100 | > 100 | > 100 | > 100 | > 100 | > 100 | > 100 | > 100 | > 100 |  |  |  |  |  |  | 
8 | Nc1ncc(Cc2nc3ccccc3s2)s1 | > 100 | > 100 | > 100 µM | > 100 | > 100 | > 100 | > 100 | > 100 | > 100 | > 100 | > 100 | > 100 | > 100 | > 100 |  |  |  |  | 
9 | CC(=O)Oc1c(OC(C)=O)c(-c2ccc(O)c(O)c2)c(O)c(O)c1-c1ccc(O)cc1 | > 100 |  | 67.8 µM and > 100 µM | > 100 | > 100 | > 100 | > 100 | > 100 | > 100 | > 100 | > 100 | > 100 |  |  |  | 24.5 | 36.1 | 53.6 | 59.5
10 | COc1cc2c(cc1OC)C(Cl)C(c1cc(OC)c(OC)c(OC)c1)=C2Cl (configuration not stated) |  | 28.8 | 40.7 µM |  |  | 29.9 | 31.9 |  | 48.7 | 29.9 | 26.7 | 33 |  |  |  |  |  |  | 
11 | COc1cc2c(c(OC)c1OC)C(=O)CC2N (configuration not stated) | > 100 | > 100 | > 100 µM | > 100 | > 100 | > 100 | > 100 | > 100 | > 100 | > 100 | > 100 | > 100 | > 100 |  | > 100 |  |  |  | 
12 | NNC(=O)c1n[nH]nc1SSc1n[nH]nc1C(=O)NN | > 100 | > 100 | > 100 µM | > 100 | > 100 | > 100 | > 100 | > 100 | > 100 | > 100 | > 100 | > 100 | > 100 |  | > 100 |  |  |  | 
13 | CN1OC(=O)N(C)C1c1ccccc1 (configuration not stated) | > 100 |  | > 100 µM | > 100 | > 100 | > 100 | > 100 | > 100 | > 100 | > 100 | > 100 | > 100 |  |  |  |  |  |  | 
14 | CC(C)(C)C=C=C(C(C)(C)C)P(=O)(O)O | > 100 | > 100 |  | > 100 | > 100 |  | > 100 | > 100 | > 100 | > 100 | > 100 | > 100 | > 100 | > 100 |  |  |  |  | 
15 | Cc1ccc(S(=O)(=O)N/N=C2\C=C[C@]3(CC2)C(=O)N(C)c2ccccc23)cc1 | > 100 | > 100 | > 100 µM | > 100 | > 100 | > 100 | > 100 | > 100 | > 100 | > 100 |  | > 100 | > 100 | > 100 |  |  |  |  | 
16 | CCN(CC)CCNc1ccc(C)c2sc3ccc(O)cc3c(=O)c12 | 1.91 | 1.63 | 1.06 µM | 2.66 | 2.56 | 1.16 | 4.4 | 9.3 | 3.2 | 1.98 | 2.5 | 2.44 |  |  |  |  |  |  | 
17 | CC(C)(C)/C(O)=C\c1nc2cc(C(F)(F)F)ccc2[nH]c1=O | > 100 | > 100 | 81.2 µM |  | > 100 |  | > 100 | > 100 | > 100 | > 100 |  | > 100 | > 100 | > 100 | > 100 |  |  |  | 
18 | COc1cc(CC2c3cc(OC)c(OC)cc3CCN2C)c(Oc2cc3c(cc2OC)-c2c(OC)c(OC)c(OC)c4c2C(C3)N(C)CC4)cc1OC (configuration not stated) | 30.6 | 30.9 | > 50.9 µM | 13.7 | 24.3 | > 42.5 | 28.2 | 30.6 | 32 | 28.8 | 25.8 | 26 |  |  |  |  |  |  | 
